Assay results from PubChem BioAssay (NCI).
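Interpolation was linear, between the two tested concentrations surrounding the appropriate level; five concentrations were tested over 48 hours in 96-well plates. TGI: total growth inhibition.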

Legend:
Assay in all cases: NCI tumour cell line growth inhibition, 48 h
DLD-1 colon = test system: DLD-1 colon
DMS 273 small cell lung = test system: DMS 273 small cell lung
LXFL 529 NSCLC = test system: LXFL 529 NSCLC
M19-MEL melanoma = test system: M19-MEL melanoma
DMS 114 small cell lung = test system: DMS 114 small cell lung
KM20L2 colon = test system: KM20L2 colon
P388 leukemia = test system: P388 leukemia
P388/ADR leukemia = test system: P388/ADR leukemia
SN12K1 renal = test system: SN12K1 renal
XF 498 CNS = test system: XF 498 CNS
RXF-631 renal = test system: RXF-631 renal

Row | SMILES | TGI (DLD-1 colon) [µM] | TGI (DMS 273 small cell lung) [µM] | TGI (LXFL 529 NSCLC) [µM] | TGI (M19-MEL melanoma) [µM] | TGI (DMS 114 small cell lung) [µM] | TGI (KM20L2 colon) [µM] | TGI (P388 leukemia) [µM] | TGI (P388/ADR leukemia) [µM] | TGI (SN12K1 renal) [µM] | TGI (XF 498 CNS) [µM] | TGI (RXF-631 renal) [µM]
1 | O=C1C=CC(=O)c2c(O)c(NCCOCCO)c(Cl)c(O)c21 | 5.51 | 14.8 | 20.4 | 3.22 |  |  |  |  |  |  | 
2 | COc1cccc(N[C@@H]2c3cc4c(cc3C(c3cc(OC)c(O)c(OC)c3)[C@H]3C(=O)OCC32)OCO4)c1 (stereo partly specified) | 8.35 | 2.44 |  | > 59.7 | 4.77 | > 29.4 | 0.385 | 0.984 | 9.55 | 23.9 | 
3 | CC1=C2C(=CO[C@H](C)[C@H]2C)C(=O)C(C(=O)O)=C1O | 66.9 | 123 |  | 79.1 | 30 | 71.7 | 500 | 67.7 | 42 | 13.6 | 
4 | COc1cccc(C=O)c1[O-].[O]=[U](=[O])([OH2+])[OH2+] | > 100 | > 100 | > 100 | > 100 | > 100 | > 100 |  |  |  |  | 
5 | CC1(C)CC2(CC(C)(C)N1O)NC(=O)OC2=O | > 100 | > 100 |  | > 100 | > 100 | > 100 | > 100 | > 100 | > 100 | > 100 | 
6 | NCc1cccc(O)c1O | > 100 | > 100 | > 100 | > 100 | > 100 | > 100 |  |  |  | > 100 | > 100
7 | O=C1c2c(O)cccc2-c2nn(CCNCCO)c3ccc(NCCNCCO)c1c23 | > 41.3 | 2.54 | 1.14 | 1.15 | 0.178 | 9.29 |  |  |  | 0.379 | 5.54
8 | Cc1ccccc1-c1nc2c(C(=O)NCCN(C)C)cccc2[nH]1 | > 100 | > 100 |  |  | > 100 | > 100 | 44.3 | > 100 | > 100 | > 100 | 
9 | CN(C)CCCNc1ccc2nnn3c4ccc(O)cc4c(=O)c1c23 | 18.1 |  | 20.1 | 25.6 | 23.1 | 17.1 |  |  |  |  | 
